# Reference: patent publication US20220241223A1, “USE OF DISULFIRAM OR ITS DERIVATIVES FOR THE TREATMENT OF MITOCHONDRIAL DISEASES OR DYSFUNCTION” (Universite D'angers, priority 2019, published 2022)
# pIC50: −log10 of the molar value.
# Tests used:
# [1] = tested on: JCP239 NARP (T8993G) cybrid cell line; test: NARP cybrid growth in glucose-deprived medium; format: cell-based, human; conditions: FIG. 3, low concentrations (from 1 nM), 5 days
# Procedure: FIG. 3: Effect of DSF on NARP cybrid cell lines (JCP239 NARP (T8993G)) grown in glucose deprived medium. DHLA (dihydrolipoic acid) was used as a positive control, as in previous studies (Couplan E et al. & Aiyar R S et al.). Various concentrations of DSF were tested as indicated. After 5 days of treatment by DSF, or DMSO (negative control), or DHLA (positive control), followed by a trypsin treatment, the number of living cells was determined using a Scepter Counter (Millipore). All cell counts were expressed relative to DMSO values set at 100%. This experiment has been repeated two times in triplicates and error bars represent the standard deviation. For each condition, the mean values of the resulting six points is indicated and compared to the negative control (DMSO-treated cells) using the Student's t-test (*P=0.0153; **P=0.0025; ***P<0.0001). […]
# shy1-G137R cells = test: Growth in liquid non-fermentable medium with increasing DSF concentrations; format: cell-based, Saccharomyces cerevisiae; conditions: 40 h, 2% glycerol and 0.1% galactose
# Procedure: (§1) Exponentially growing cells were inoculated in fresh non-fermentable YPG or YPE media supplemented, or not, with increasing DSF concentrations.
# (§2) More precisely, the shy1-G137R and Δcoa6 cells have been grown for 40 h in liquid medium containing 2% glycerol and 0.1% galactose as carbon source and increasing concentrations of DSF (100 nM to 6 μM). The A29G and fmc1Δ cells have been grown for 48 h in liquid medium containing 2% glycerol as carbon source and increasing concentrations of DSF (50 nM to 5 μM). The taz1Δ and sym1Δ cells have been grown for 48 h in rich liquid medium containing 2% ethanol/0.2% galactose and 2% glycerol/2% ethanol as a carbon source, respectively, and increasing concentrations of DSF (100 nM to 9 μM).
# fmc1Δ cells = test: as above; format: cell-based, Saccharomyces cerevisiae; conditions: 48 h
# Procedure: as §1, §2
# sym1Δ cells = test: as above; format: cell-based, Saccharomyces cerevisiae; conditions: 48 h
# Procedure: as §1, §2
# taz1Δ cells = test: as above; format: cell-based, Saccharomyces cerevisiae; conditions: TAZ1 deletion, 48 h, 2% ethanol/0.2% galactose
# Procedure: as §1, §2
# A29G cells = test: as above; format: cell-based, Saccharomyces cerevisiae; conditions: 48 h
# Procedure: as §1, §2
# [2] = suppression of respiratory growth defect
# [3] = Saccharomyces cerevisiae, read-out: toxic dose (IC50)
compound,measurement,setting,value
"CCN(CC)C(=S)SSC(=S)N(CC)CC [DSF, 1-(diethylthiocarbamoyldisulfanyl)-N,N-diethyl-methanethioamide]",effect on growth of NARP cybrids,[1],significant positive effect
same,pIC50,"shy1-G137R cells; Saccharomyces cerevisiae, DSF 100 nM to 6 μM, read-out: toxic dose (IC50)",5.72
same,optimal concentration,shy1-G137R cells; [2],300 nM
same,optimal concentration,"fmc1Δ cells; FMC1 deletion, suppression of respiratory growth defect, 2% glycerol",1 µM
same,pIC50,fmc1Δ cells; [3],5.22
same,optimal concentration,"sym1Δ cells; SYM1 deletion, suppression of respiratory growth defect, 2% glycerol/2% ethanol",1 µM
same,pIC50,sym1Δ cells; [3],5.05
same,pIC50,"taz1Δ cells; Saccharomyces cerevisiae, DSF 100 nM to 9 μM, read-out: toxic dose (IC50)",5.05
same,optimal concentration,taz1Δ cells; [2],1 µM
same,optimal concentration,"A29G cells; A29G mutation, suppression of respiratory growth defect, 2% glycerol",150 to 200 nM
same,pIC50,A29G cells; [3],6.40
